Columns and labels:
[1] = molecular target: T1, [3H]-(±)-MPH binding to rat brain striatal synaptosomes (Rattus norvegicus, UniProt P23977); details: mg/mg comparison; cited from earlier work
T1 construct: host or cells: rat brain striatal synaptosomes

dogs = details: reserpine pre-treated dogs; cited from earlier work
[2] = test system: male rats of the Sprague-Dawley strain; assay: Locomotor activity measurement in rats; assay type: in vivo, rat
Method: FIGS. 4A-B—Locomotor activity of SD rats after i.p. injection of IPH (10 mg/kg) and saline. The time course of locomotor response over a 120 min period following i.p. administration of IPH (10 mg/kg) versus saline is shown in FIG. 4A. As expected, IPH produced robust effects on locomotor activity in rats compared to saline injections at every 10 min period recorded post-dosing with a mean of nearly 1200 counts recorded during the initial 10 min measurement. Shown in FIG. 4B are the cumulative locomotor activity counts over the entire 120 min study period.
Chemical compounds. dl-threo-methylphenidate (MPH) was purchased from Sigma-Aldrich (St. Louis, Mo.). dl-isopropylphenidate (IPH) was also synthesized in the inventors' laboratory using the following method. In brief, (±)-ritalinic acid (2 mmol) was dissolved in isopropyl alcohol saturated with HCl gas (75 ml) and refluxed for 24 h under nitrogen. […] All compounds studied were assessed as their HCl salts. […]
Locomotor Activity Measurement in Rats. Locomotor-inducing activity of IPH was measured according to methods previously described by Patrick and associates during their establishment the differential pharmacology of the enantiomers of MPH (Patrick et al., 1987) as well as hydroxylated metabolites of MPH (Patrick et al., 1981). […] In brief, following an initial 60 min habituation period to the activity chamber, racemic IPH (or saline) was administered intraperitonealy (i.p.) to each animal (n=5 per active drug group; n=3 per saline group) at a dose of 10 mg/kg to correspond with 10 mg of racemic MPH (delivering 5 mg of d-MPH) which was previously determined to produce maximal behavioral responses (Patrick et al., 1987). […] Locomotor activity was recorded within doughnut-shaped cages with six photocell sensors equally spaced around a 9 cm runway. Activity counts as assessed by light-beam interruptions were recorded for each animal in increments of 10 minutes over a 2 hr period. Differences in the cumulative motor activity accounts were assessed by the unpaired, two-tailed Student t-test. […]

Sprague-Dawley rats = details: intracerebroventricular; cited from earlier work
[3] = immediate-release tablet; cited from earlier work

T1 sequence (P23977 whole entry): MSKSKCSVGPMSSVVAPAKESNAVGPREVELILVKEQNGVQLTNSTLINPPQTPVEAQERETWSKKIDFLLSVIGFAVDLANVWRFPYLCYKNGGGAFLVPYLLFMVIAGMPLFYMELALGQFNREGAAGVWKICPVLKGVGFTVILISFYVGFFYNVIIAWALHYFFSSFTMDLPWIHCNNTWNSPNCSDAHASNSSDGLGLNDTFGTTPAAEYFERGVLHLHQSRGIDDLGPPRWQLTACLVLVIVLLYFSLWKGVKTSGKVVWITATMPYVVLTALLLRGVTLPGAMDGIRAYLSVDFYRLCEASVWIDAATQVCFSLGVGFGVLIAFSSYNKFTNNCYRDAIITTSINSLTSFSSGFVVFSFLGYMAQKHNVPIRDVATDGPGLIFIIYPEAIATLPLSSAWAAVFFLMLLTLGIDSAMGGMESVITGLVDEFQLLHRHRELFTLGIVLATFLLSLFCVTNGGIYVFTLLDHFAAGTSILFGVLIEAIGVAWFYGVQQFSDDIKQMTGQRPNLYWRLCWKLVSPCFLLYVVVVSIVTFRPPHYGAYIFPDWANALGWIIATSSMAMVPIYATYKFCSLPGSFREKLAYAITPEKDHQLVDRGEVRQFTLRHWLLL

| Compound | activity relative to MPH in inhibition of [3H]-(±)-MPH binding [1] | potency versus MPH in antagonizing the physiological influences of reserpine (dogs) | mean locomotor activity counts during the initial 10 min measurement ([2]; 10 mg/kg i.p., SD rats) [counts] | cumulative locomotor activity counts over 120 min versus saline ([2]; 10 mg/kg i.p., SD rats, p<0.01) | locomotor responses compared with d-MPH 5 mg/kg of the earlier study (Patrick et al., 1987) ([2]; racemic IPH 10 mg/kg i.p., identical experimental conditions) | duration of locomotor activity (Sprague-Dawley rats) [min] | plasma half-life [3] [h] |
| --- | --- | --- | --- | --- | --- | --- | --- |
| CC(C)OC(=O)C(c1ccccc1)C1CCCCN1 (racemic) [IPH, dl-threo-α-phenyl-2-piperidineacetic acid isopropyl ester] | approximately one third | lower potency | ~1200 | significantly elevated | more potent and sustained locomotor responses | – | – |
| COC(=O)C(c1ccccc1)C1CCCCN1 (racemic) [MPH, dl-threo-methylphenidate, reference compound] | – | – | – | – | – | 60 | 2 to 3 |
